Test system: Plasmodium berghei
Assay: Luciferase/luciferin-expressing antifolate-resistant parasites were used to infect a culture of HepG2 cells that were pre-incubated with compounds. Infected hepatocytes emit light due to the luciferase reaction. Assay results are presented as the percent inhibition of light emission compared to control. […]
Type: functional
Conditions: sporozoite; for IC90: read-out: LUCIFERASE INFECTION ASSAY - IC90
[1] = read-out: LUCIFERASE INFECTION ASSAY - IC50

SMILES	IC50 [1] [µM]	IC90 [µM]	other results
CCC1c2ccsc2CCN1C(=O)C1CCN(S(=O)(=O)c2ccc(Cl)c([N+](=O)[O-])c2)CC1 (stereo not given)	> 10	> 10	
Cc1cc(C)cc(NC(=S)NC2CCCC(C)C2C)c1 (stereo not given)		9.4	IC50 (PBLUC_HILL_SLOPE 3.85, PBLUC_R_SQUARED 0.565, read-out: LUCIFERASE INFECTION ASSAY - IC50): 5.32 µM
CCOC(=O)c1c(-c2ccc(OC)cc2)csc1NC(=O)CSc1nc(C)nc2sc3c(c12)CCC3		> 10	IC50 (FFLUC_HILL_SLOPE 0.459, FFLUC_R_SQUARED 0.138, read-out: LUCIFERASE INFECTION ASSAY - IC50): > 10 µM
COc1cccc(CN2CCN3C(C(=O)Nc4ccc(F)c(Cl)c4)=COC3=NC2=O)c1		> 10	IC50 (HEPG2TOX_HILL_SLOPE 1.28, HEPG2TOX_R_SQUARED 0.654, PBLUC_HILL_SLOPE 1.61, PBLUC_R_SQUARED 0.572, read-out: LUCIFERASE INFECTION ASSAY - IC50): 3.18 µM
Cc1ccc2nc(NC(=O)c3ccc(C#N)cc3)c(C(=O)NC3CCCCC3)n2c1		> 8.22	IC50 (HEPG2TOX_HILL_SLOPE 2.19, HEPG2TOX_R_SQUARED 0.834, PBLUC_HILL_SLOPE 2.97, PBLUC_R_SQUARED 0.239, read-out: LUCIFERASE INFECTION ASSAY - IC50): 4.92 µM
O=S(=O)(c1ccccc1)c1nc(/C=C/c2ccccc2)oc1NCc1ccco1		> 10	IC50 (PBLUC_HILL_SLOPE 2.89, PBLUC_R_SQUARED 0.0298, read-out: LUCIFERASE INFECTION ASSAY - IC50): 5.62 µM
COCCN(CCOC)C(=O)CSc1nnc(/C=C/c2ccccc2)[nH]1	> 10	> 10	
COc1ccc(-c2cc3c(n(C)c2=O)CCN(C(=O)C(C)n2nc(C)cc2C)C3)c2ccc(C)nc12 (stereo not given)	> 6.8	> 6.8	
CCn1c(C)nc2cc(C(=O)NNC(=O)c3cc(=O)[nH]c4ccccc34)ccc21	> 10	> 10	
Cc1cc(NC(=O)c2ccc(CN3CCN(C/C=C/c4ccccc4)CC3)cc2)ccc1Cl		> 10	IC50 (HEPG2TOX_HILL_SLOPE 1.44, HEPG2TOX_R_SQUARED 0.929, PBLUC_HILL_SLOPE 2.64, PBLUC_R_SQUARED 0.29, read-out: LUCIFERASE INFECTION ASSAY - IC50): 4.99 µM
Oc1ccc(C2=CCN(c3ncnc4ccccc34)CC2)cc1		2.89	IC50 (HEPG2TOX_HILL_SLOPE 0.526, HEPG2TOX_R_SQUARED 0.691, PBLUC_HILL_SLOPE 1.57, PBLUC_R_SQUARED 0.66, read-out: LUCIFERASE INFECTION ASSAY - IC50): 0.716 µM
Cc1cc(C(=O)CN(C)Cc2nc(=O)c3ccccc3[nH]2)c(C)n1Cc1ccc(F)cc1		> 10	IC50 (PBLUC_HILL_SLOPE 13.1, PBLUC_R_SQUARED 0.161, read-out: LUCIFERASE INFECTION ASSAY - IC50): 8.98 µM
CC(C)(C)c1ccc(CSCCNC2=CC(=O)CC(c3ccc4c(c3)OCO4)C2)cc1 (stereo not given)		> 7.54	IC50 (HEPG2TOX_HILL_SLOPE 3.72, HEPG2TOX_R_SQUARED 0.93, PBLUC_HILL_SLOPE 2.67, PBLUC_R_SQUARED 0.216, read-out: LUCIFERASE INFECTION ASSAY - IC50): 3.87 µM
CCOC(=O)c1sc(N(NC(=O)c2ccc(Cl)cc2)C(=O)c2ccc(Cl)cc2)c2c1CC(C)(C)CC2=O	1.81	2.02	
COc1ccc(-c2nnc(SCC(=O)c3cc(F)ccc3OC)[nH]2)cc1		> 10	IC50 (HEPG2TOX_HILL_SLOPE 0.475, HEPG2TOX_R_SQUARED 0.679, read-out: LUCIFERASE INFECTION ASSAY - IC50): > 10 µM
O=C(Cn1ncc(Cl)c(Cl)c1=O)NCCC(c1ccccc1)c1ccccc1	5.37	7.67	
COc1ccc(S(=O)(=O)NN(C)c2nc3ccccc3nc2C(F)(F)F)cc1	5.18	> 8	
OC1(c2ccccc2)c2ccccc2-c2ccccc21	7.15	> 12.8	
Cc1ccc2nc(NC(=O)c3cc(F)ccc3C)c(C(=O)NCC(C)C)n2c1		3.84	IC50 (HEPG2TOX_HILL_SLOPE 2.69, HEPG2TOX_R_SQUARED 0.883, PBLUC_HILL_SLOPE 9.75, PBLUC_R_SQUARED 0.136, read-out: LUCIFERASE INFECTION ASSAY - IC50): 3.07 µM
CC(OC(=O)c1cccc(Cl)c1N)C(=O)N(C(C)C)C(C)C (stereo not given)	> 10	> 10	
CCOC(=O)c1ccc(N2C(=O)c3ccccc3C(C=NNC(=O)Cc3ccc(F)cc3)C2=O)cc1 (stereo not given)		> 10	IC50 (HEPG2TOX_HILL_SLOPE 7.51, HEPG2TOX_R_SQUARED 0.875, PBLUC_HILL_SLOPE 2.71, PBLUC_R_SQUARED 0.377, read-out: LUCIFERASE INFECTION ASSAY - IC50): 8.78 µM
COc1ccc(CC2CCC(=NOC(=O)c3ccc(C(C)(C)C)cc3)CC2)cc1 (stereo not given)		> 8.39	IC50 (FFLUC_HILL_SLOPE 16.8, FFLUC_R_SQUARED 0.295, read-out: LUCIFERASE INFECTION ASSAY - IC50): > 8.39 µM
Oc1c(C(Nc2nc3ccccc3s2)c2ccc(OC(F)F)cc2)ccc2cccnc12 (stereo not given)	5.55	> 10	

SMILES	IC50 [1] [µM]	IC90 [µM]	other results
O=C(Cc1coc2ccc3ccccc3c12)Nc1cc(Cl)ccc1N1CCOCC1		> 10	IC50 (FFLUC_HILL_SLOPE 11.6, FFLUC_R_SQUARED 0.426, read-out: LUCIFERASE INFECTION ASSAY - IC50): > 10 µM
CCOc1cc(/C=C/C(=O)N(c2ccccc2)c2nc(-c3ccc(F)cc3)cs2)cc(Cl)c1OC		> 10	IC50 (FFLUC_HILL_SLOPE 10.9, FFLUC_R_SQUARED 0.679, read-out: LUCIFERASE INFECTION ASSAY - IC50): > 10 µM
O=C(OCc1cc(=O)oc2ccc3ccccc3c12)c1ccccc1-c1ccc(C(F)(F)F)cc1		> 10	IC50 (FFLUC_HILL_SLOPE 17.5, FFLUC_R_SQUARED 0.62, read-out: LUCIFERASE INFECTION ASSAY - IC50): > 10 µM
Clc1ccc2c(NCc3ccc(-n4cccn4)nc3)ncnc2c1		> 10	IC50 (PBLUC_HILL_SLOPE 1.57, PBLUC_R_SQUARED 0.509, read-out: LUCIFERASE INFECTION ASSAY - IC50): 3.37 µM
CC(=O)c1cnc(N)nc1C	> 21.8	> 21.8	
CCCS(=O)(=O)NC(=O)C1(C)CCCN(C(=O)c2ccccc2OC)C1 (stereo not given)	> 8.63	> 8.63	
CNc1snc(C)c1C(=O)Nc1ccc(OC)c(Cc2ccccc2)c1		1.1	IC50 (PBLUC_HILL_SLOPE 16.3, PBLUC_R_SQUARED 0.619, read-out: LUCIFERASE INFECTION ASSAY - IC50): 0.961 µM
C=CCn1c(SCC(=O)c2cc(C)n(-c3ccc(OC)cc3)c2C)nc2sc(-c3ccccc3)cc2c1=O	> 10	> 10	
Clc1ccc(N/N=C/Cc2nnnn2-c2ccccc2)cc1		> 10.6	IC50 (PBLUC_HILL_SLOPE 11.7, PBLUC_R_SQUARED 0.117, read-out: LUCIFERASE INFECTION ASSAY - IC50): 10.1 µM
Cn1c(-c2ccc(Cl)cc2)csc1=Nc1ccc(Cl)c(Cl)c1		3.46	IC50 (FFLUC_HILL_SLOPE 8.54, FFLUC_R_SQUARED 0.841, PBLUC_HILL_SLOPE 1.64, PBLUC_R_SQUARED 0.468, read-out: LUCIFERASE INFECTION ASSAY - IC50): 0.91 µM
CN1N=C2c3ccccc3CCC2C1c1ccc(C(F)(F)F)cc1 (stereo not given)		1.66	IC50 (PBLUC_HILL_SLOPE 1.95, PBLUC_R_SQUARED 0.843, read-out: LUCIFERASE INFECTION ASSAY - IC50): 0.537 µM
Cc1nn(-c2ccccc2C(F)(F)F)c2nc(-c3ccccc3)cc(C(=O)N3CCCC(C)C3)c12 (stereo not given)		> 10	IC50 (PBLUC_HILL_SLOPE 14.7, PBLUC_R_SQUARED 0.435, read-out: LUCIFERASE INFECTION ASSAY - IC50): 9.53 µM
COC(=O)C(C(=O)CSc1nnc(-c2ccc(C(C)(C)C)cc2)n1C)=C1Nc2ccccc2N1	> 10	> 10	
CN(C)CCNC(=O)c1ccc(-c2cn3c(-c4ccc(N(C)C)cc4)cnc3cn2)cc1	> 7.7	> 7.7	
O=C(Nc1ccc(SC(F)(F)F)cc1)Nc1ccc(-n2ccc(C(F)(F)F)n2)cc1		2.69	IC50 (HEPG2TOX_HILL_SLOPE 17.7, HEPG2TOX_R_SQUARED 0.761, PBLUC_HILL_SLOPE 20.9, PBLUC_R_SQUARED 0.513, read-out: LUCIFERASE INFECTION ASSAY - IC50): 2.42 µM
CC(=O)c1ccc(NC(=O)Nc2ccc3nc(-c4cccc(C(F)(F)F)c4)nn3c2)cc1	3.53	7.78	
Fc1ccc(CNCC2(c3ccnc(-c4ccc(Cl)cc4)c3)CC2)cc1F	> 10	> 10	
Cc1c(OCc2ccc([N+](=O)[O-])cc2)ccc2c1OC(C)(C)C=C2	0.667	6.1	
O=C(Nc1ccccc1)N1CCc2nc(NCc3cccc(Oc4ccccc4)c3)ncc2C1		3.15	IC50 (HEPG2TOX_HILL_SLOPE 4.26, HEPG2TOX_R_SQUARED 0.801, PBLUC_HILL_SLOPE 11.5, PBLUC_R_SQUARED 0.365, read-out: LUCIFERASE INFECTION ASSAY - IC50): 2.6 µM
COc1ccccc1/C=C(/C(=O)OCc1cn2ccccc2c1C#N)c1ccccc1		> 10	IC50 (PBLUC_HILL_SLOPE 16.4, PBLUC_R_SQUARED 0.216, read-out: LUCIFERASE INFECTION ASSAY - IC50): 9.92 µM
CC(=O)Nc1ccc(Nc2cc3c(cn2)cc(-c2cccnc2)n3Cc2ccccc2)cc1		7.61	IC50 (PBLUC_HILL_SLOPE 3.49, PBLUC_R_SQUARED 0.716, read-out: LUCIFERASE INFECTION ASSAY - IC50): 4.06 µM
Cc1cc(/C=C/c2cc(C(=O)O)c3ccccc3n2)cc(C)c1OC(F)F		3.87	IC50 (HEPG2TOX_HILL_SLOPE 0.464, HEPG2TOX_R_SQUARED 0.656, PBLUC_HILL_SLOPE 13.4, PBLUC_R_SQUARED 0.624, read-out: LUCIFERASE INFECTION ASSAY - IC50): 3.28 µM
